What was measured:
[1] = system: recurrent wheeze in children at age 3 years; assay: Project Viva vitamin D study: maternal intake during pregnancy and risk of recurrent wheeze in children at age 3 years; format: in vivo, human
Description: (§1) Project Viva is a prospective cohort study examining prenatal factors in relation to outcomes of pregnancy and child health. Participants were recruited at eight obstetric offices of Harvard Vanguard Medical Associates, a large multispecialty urban/suburban group practice in eastern Massachusetts. At the 1st study visit, directly after the person's initial clinical prenatal visit, we obtained informed consent, administered a brief interview, and provided a take-home self-administered questionnaire. At the 2nd study visit, at 26 to 28 weeks gestation, we again administered a brief interview and provided a questionnaire. Project Viva participants gave birth at Brigham and Women's Hospital or Beth Israel Deaconess Medical Center in Boston. Within 3 days after delivery, we interviewed the mother. We reassessed mothers and children at 6 months, 1 year, and annually thereafter. At the time of this analysis, age 3 visits were almost complete.
Exclusion criteria included multiple gestation (e.g., twins), inability to answer questions in English, plans to move out of the area before delivery, and gestational age greater than 22 completed weeks at initial prenatal clinical appointment. Additional details of recruitment and follow-up have been presented elsewhere (Yunginger et al., Am. Rev. Respir. Dis. 146:888-894, 1992). Among 2,128 delivered infants in Project Viva, we excluded 228 because of missing first and second trimester diet assessment data and an additional 37 with a gestation of less than 34 completed weeks. […] Of the remaining 1,495 infants, 76 were lost to follow-up and 225 have not yet exited the 3-year time-window, leaving an analysis sample of 1,194 participants. Human subjects committees of Harvard Pilgrim Health Care, Brigham and. Women's Hospital, and Beth Israel Deaconess Medical Center approved the study protocols.
(§2) We obtained data directly from participants and from medical records, as detailed previously (Yunginger et al., Am. Rev. Respir. Dis. 146:888-894, 1992). Briefly, maternal diet assessment at both the 1st and 2nd visits was based on a validated 166-item semi-quantitative food frequency questionnaire (FFQ) (Fawzi et al., Ann. Epidemiol. 14:754-762, 2004). We slightly modified the FFQ for use in pregnancy from the FFQ used in the Nurses' Health Study and other cohort studies (Willett, New York: Oxford University Press; 1998). Modifications for use in pregnancy included changing the time referent, beverage section, and vitamin and supplement assessment. The FFQ used at the 1st visit reflected intakes in the 1st trimester and the time referent was “during this pregnancy.” In addition, we collected information on beverage intake during 2 specified time periods: before and after the participant learned that they were pregnant. To assess vitamin and supplement intake during the 1st trimester, we administered a separate interview that assessed dose, duration, and brand/type of multivitamin, prescribed prenatal vitamin, and supplements. The FFQ used at the 2nd visit (26 to 28 weeks of gestation) reflected intakes during the 2nd trimester; the time referent was “during the past 3 months.” The 2nd trimester instrument was the same as the 1st trimester, except that we assessed use of vitamins/supplements as part of the self-completed FFQ and we collected beverage information during the one time period.
To calculate intake of nutrients, we used the Harvard nutrient composition database (Hu, N. Engl. J. Med. 337:1491-1499, 1997). We calculated vitamin D intake for each FFQ, and the mean of these two values was the assigned exposure for each woman during pregnancy (Rifas-Shiman, Paediatr. Perinat. Epidemiol. 20:35-42, 2006). We used a similar approach for retinol and calcium intakes. For analyses based on foods rather than nutrients, we focused on milk (servings/day), the major contributor to vitamin D intake in the diet. […]

[2] = system: respiratory infection in children at age 3 years; assay: Project Viva vitamin D study: risk of respiratory infection in children at age 3 years; format: in vivo, human
Description: as §1, §2
(§3) To calculate intake of nutrients, we used the Harvard nutrient composition database (Hu, N. Engl. J. Med. 337:1491-1499, 1997). We calculated vitamin D intake for each FFQ, and the mean of these two values was the assigned exposure for each woman during pregnancy (Rifas-Shiman, Paediatr. Perinat. Epidemiol. 20:35-42, 2006). We used a similar approach for retinol and calcium intakes. For analyses based on foods rather than nutrients, we focused on milk (servings/day), the major contributor to vitamin D intake in the diet. We also examined foods with possible effects on asthma risk (McKeever et al., Am. J. Respir. Crit. Care Med. 170:725-729, 2004; Devereux et al., J. Allergy Clin. Immunol. 115:1109-1117, 2005): fruits and vegetables (servings/day) and fish (servings/week).
(§4) Finally, we examined two related outcomes: respiratory infection and eczema. We defined “respiratory infection” as a positive response to at least one of three questions on any of the annual questionnaires: “since your child was born (was 12 months old, was 2 years old), have you been told by a health professional that he/she has: (a) bronchiolitis; (b) pneumonia; (c) bronchitis, croup, or any other respiratory infection?” We defined “eczema” as a positive response to one question on any of the annual questionnaires: “have you ever been told by a health care professional that your child has eczema?”
(§5) To assess the associations between vitamin D intake and clinical outcomes, we used multiple logistic regression models. […]

[3] = system: eczema in children at age 3 years; assay: Project Viva vitamin D study: risk of eczema in children at age 3 years; format: in vivo, human
Description: as §1, §2, §3, §4, §5

any wheeze in children = assay: Project Viva vitamin D study: risk of any wheeze during the first three years of life; format: in vivo, human; conditions: n=416 cases; adjusted for the 12 factors in model A
Description: as §1, with “We reassessed mothers and children at 6 months, 1 year, and annually thereafter. At the time of this analysis, age 3 visits were almost complete.” left out
We obtained data directly from participants and from medical records, as detailed previously (Yunginger et al., Am. Rev. Respir. Dis. 146:888-894, 1992). Briefly, maternal diet assessment at both the 1st and 2nd visits was based on a validated 166-item semi-quantitative food frequency questionnaire (FFQ) (Fawzi et al., Ann. Epidemiol. 14:754-762, 2004). […] To assess vitamin and supplement intake during the 1st trimester, we administered a separate interview that assessed dose, duration, and brand/type of multivitamin, prescribed prenatal vitamin, and supplements. […]

[4] = system: cellular response to dexamethasone; conditions: steroid-resistant asthmatics; cited from earlier work
[5] = quartile 2 (median 513 IU) vs quartile 1
[6] = quartile 3 (median 603 IU) vs quartile 1
[7] = quartile 4 (median 724 IU) vs quartile 1

vitamin D
Multivariate OR per 100 IU/day increase, recurrent wheeze ([1]; LMP in other seasons): 0.85
Multivariate OR per 100 IU/day increase, recurrent wheeze ([1]; LMP in winter): 0.62
Odds ratio, recurrent wheeze, model 2 with further control for child vitamin D intake from foods at 2 years ([1]; maternal intake quartiles, Table 2 model 2 plus child vitamin D intake from foods at 2 years): 0.34
Odds ratio, recurrent wheeze, model 2 with further control for child use of a vitamin supplement at age 6 months ([1]; maternal intake quartiles, Table 2 model 2 plus child vitamin supplement at 6 months): 0.39
Odds ratio, recurrent wheeze with 4+ wheezing episodes, per 100 IU increase ([1]; n=86 cases, adjusted for the 12 factors in model A): 0.79
Odds ratio, recurrent wheeze and a doctor-diagnosis of asthma, per 100 IU increase ([1]; n=132 cases, adjusted for the 12 factors in model A): 0.82
Odds ratio, recurrent wheeze, further adjustment for race/ethnicity and college education ([1]; per 100 IU/day maternal intake): 0.81
Odds ratio, recurrent wheeze, per 100 IU/day, Food Only, Unadjusted ([1]; per 100 IU/day maternal intake, Food Only): 0.81
Odds ratio, recurrent wheeze, per 100 IU/day, Supplement Only, Unadjusted ([1]; per 100 IU/day maternal intake, Supplement Only): 0.82
Odds ratio, recurrent wheeze, per 100 IU/day, Total intake, Unadjusted ([1]; per 100 IU/day maternal intake, Total): 0.81
Odds ratio, recurrent wheeze, per 100 IU/day, Food Only, Multivariate model A ([1]; per 100 IU/day, Food Only, adjusted for 12 factors): 0.79
Odds ratio, recurrent wheeze, per 100 IU/day, Food Only, Multivariate model B ([1]; per 100 IU/day, Food Only, model A plus vitamin D from supplements): 0.80
Odds ratio, recurrent wheeze, per 100 IU/day, Supplement Only, Multivariate model A ([1]; per 100 IU/day, Supplement Only, adjusted for 12 factors): 0.82
Odds ratio, recurrent wheeze, per 100 IU/day, Supplement Only, Multivariate model B ([1]; per 100 IU/day, Supplement Only, model A plus vitamin D from foods): 0.82
Odds ratio, recurrent wheeze, per 100 IU/day, Total, Multivariate model A ([1]; per 100 IU/day, Total, adjusted for 12 factors): 0.80
Odds ratio, recurrent wheeze, per 100 IU/day, Total, Multivariate model C ([1]; per 100 IU/day, Total, model A plus maternal intake of calcium): 0.79
Odds ratio, recurrent wheeze, per 100 IU/day, Total, Multivariate model D ([1]; per 100 IU/day, Total, model A plus maternal intake of retinol): 0.81
Odds ratio, recurrent wheeze, Multivariate model 1 [1, 5]: 0.49
Odds ratio, recurrent wheeze, Multivariate model 2 [1, 5]: 0.47
Odds ratio, recurrent wheeze, Unadjusted ([1]; quartile 2 of maternal intake (median 513 IU, range 446-562) vs quartile 1, n = 1,194 pairs): 0.55
Odds ratio, recurrent wheeze, Multivariate model 1 [1, 6]: 0.56
Odds ratio, recurrent wheeze, Multivariate model 2 [1, 6]: 0.54
Odds ratio, recurrent wheeze, Unadjusted ([1]; quartile 3 (median 603 IU, range 563-658) vs quartile 1): 0.55
Odds ratio, recurrent wheeze, Multivariate model 1 [1, 7]: 0.41
Odds ratio, recurrent wheeze, Multivariate model 2 [1, 7]: 0.38
Odds ratio, recurrent wheeze, Unadjusted ([1]; quartile 4 (median 724 IU, range 659-1,145) vs quartile 1 (median 356 IU)): 0.39
Effect of maternal intake on risk of respiratory infections ([2]; children at age 3 years): did not affect risk
Odds ratio, respiratory infection, Multivariate model 1 [2, 5]: 0.73
Odds ratio, respiratory infection, Multivariate model 2 [2, 5]: 0.74
Odds ratio, respiratory infection, Unadjusted [2, 5]: 0.68
Odds ratio, respiratory infection, Multivariate model 1 [2, 6]: 1.01
Odds ratio, respiratory infection, Multivariate model 2 [2, 6]: 1.01
Odds ratio, respiratory infection, Unadjusted [2, 6]: 0.92
Odds ratio, respiratory infection, Multivariate model 1 [2, 7]: 0.74
Odds ratio, respiratory infection, Multivariate model 2 [2, 7]: 0.75
Odds ratio, respiratory infection, Unadjusted [2, 7]: 0.68
Effect of maternal intake on risk of early childhood eczema ([3]; children at age 3 years): did not affect risk
Odds ratio, eczema, Multivariate model 1 [3, 5]: 0.88
Odds ratio, eczema, Multivariate model 2 [3, 5]: 0.86
Odds ratio, eczema, Unadjusted [3, 5]: 1.00
Odds ratio, eczema, Multivariate model 1 [3, 6]: 0.94
Odds ratio, eczema, Multivariate model 2 [3, 6]: 0.93
Odds ratio, eczema, Unadjusted [3, 6]: 1.03
Odds ratio, eczema, Multivariate model 1 [3, 7]: 0.95
Odds ratio, eczema, Multivariate model 2 [3, 7]: 0.92
Odds ratio, eczema, Unadjusted [3, 7]: 1.10
Odds ratio, any wheeze, per 100 IU increase of maternal intake (any wheeze in children): 0.89
Effect of supplementation on cellular response to dexamethasone [4]: improve the cellular response to dexamethasone

Source: patent US20100209536A1, “Methods and Kits for Use in the Treatment and Prevention of Diseases or Conditions of the Immune System or Infectious Diseases” (The Brigham and Women's Hospital, Inc., priority 2006, published 2010)
